Key:
[1] = system: IL-6 gene expression in keratinocytes; experiment: IL-6 gene expression in keratinocytes (Taqman RT-PCR); assay type: cell-based, human; details: Taqman-PCR normalized to GAPDH
Procedure: (§1) Commercially available keratinocytes (Kurabo) were cultured in KGM-2 medium (Kurabo) according to the manufacturer's manual. The cells were seeded in a 12-well plate at 1.5×10^5 cells/well.
(§2) Keratinocytes were treated with the test solution and cells treated for 6 hours were used. Total RNA was extracted from the cells by addition of ISOGEN (Nippon Gene) according to the manufacturer's manual. cDNA was prepared with M-MLV reverse transcriptase (Life Technologies, Rockville USA), using 1 μg of RNA as template.
(§3) The gene sequence of the obtained cDNA was determined quantitatively by Taqman-PCR using an ABI PRISM 7700 Sequence Detector (Perkin Elmer) according to the manufacturer's manual, in the manner described in paragraph 11 of Japanese Unexamined Patent Publication (Kokai) No. 11-32799. The result was normalized on the basis of the expression level of human GAPDH (glyceraldehyde-3-phosphate dehydrogenase) used as an internal standard.

[2] = system: TNFα release from keratinocytes; experiment: ATP-induced TNFα release from keratinocytes (ELISA); assay type: cell-based, human
Procedure: as §1
(§4) The medium in the 12-well plate was discarded on the day after seeding of the cells, and 24 hours after adding 2 ml of test solution dissolved in fresh medium, the culture supernatants were collected. The IL-6, IL-8, IL-1α and TNF concentrations in the recovered supernatants were measured using a commercially available ELISA kit (R&D Systems, USA).
ATP (10 μM-1 mM) dissolved in the culture medium was applied as a test solution to keratinocytes, and after 24 hours the culture supernatants were recovered and the inflammatory cytokine TNFα was assayed with an ELISA kit.

[3] = system: IL-1α release from keratinocytes; experiment: ATP-induced IL-1α release from keratinocytes (ELISA); assay type: cell-based, human
Procedure: as §1, §4
ATP (10 μM-1 mM) dissolved in the culture medium was applied as a test solution to keratinocytes, and after 24 hours the culture supernatants were collected and the inflammatory cytokine IL-1α was assayed with an ELISA kit.

[4] = system: IL-8 release from keratinocytes; experiment: ATP-induced IL-8 release from keratinocytes (ELISA); assay type: cell-based, human
Procedure: as §1, §4
ATP (10 μM-1 mM) dissolved in the culture medium was applied as a test solution to keratinocytes, and after 24 hours the culture supernatants were recovered and the inflammatory cytokine IL-8 was assayed with an ELISA kit.

[5] = system: IL-6 release from keratinocytes; experiment: ATP-induced IL-6 release from keratinocytes (ELISA); assay type: cell-based, human
Procedure: as §1, §4
ATP (10 μM-1 mM) dissolved in the culture medium was applied as test solution to keratinocytes, and after 24 hours the culture supernatants were collected and the inflammatory cytokine IL-6 was assayed with the ELISA kit.

[6] = system: IL-8 gene expression in keratinocytes; experiment: IL-8 gene expression in keratinocytes (Taqman RT-PCR); assay type: cell-based, human; details: Taqman-PCR normalized to GAPDH
Procedure: as §1, §2, §3

[7] = system: HR-1 mice; experiment: Confirmation test for inflammation suppressing effect: acetone barrier disruption in a dry environment, HE staining of dorsal skin; assay type: in vivo; details: dry environment (<10% RH), acetone-treated dorsal skin, coating with 1 mM Reactive blue 2, skin collected after 48 hours, control water
Procedure: After raising HR-1 mice for 48 hours in a dry environment (<10% RH), the dorsal skin was acetone-treated to disrupt its skin barrier function, and then the skin was applied with 1 mM Reactive blue 2. Control animals were applied with water. After an additional 48 hours, the dorsal skins of both animal groups were collected. The skin tissue was fixed with formaldehyde and subjected to hematoxylin-eosin (HE) staining and observed under an optical microscope.

[8] = system: IL-8 release in ultraviolet irradiated keratinocytes; experiment: Release of cytokine IL-8 in ultraviolet irradiated keratinocytes (ELISA); assay type: cell-based, human
Procedure: as §1, §4
(§5) After discarding the medium, PBS(−) was added and UVB was irradiated at 30 or 60 mJ/cm^2. Following the irradiation, the PBS(−) was discarded, 2 ml of the medium or test solution dissolved in the medium was added, and the culture supernatants were collected after 24 hours.
Cells were exposed to ultraviolet irradiation. After 24 h, keratinocyte cell supernatants were collected and the content of IL-8 was assayed with an ELISA kit.

[9] = system: IL-6 release in ultraviolet irradiated keratinocytes; experiment: Release of cytokine IL-6 in ultraviolet irradiated keratinocytes (ELISA); assay type: cell-based, human
Procedure: as §1, §4, §5
Cells were exposed to ultraviolet irradiation. After 24 h, keratinocyte cell supernatants were collected and the content of IL-6 was assayed with an ELISA kit.

[10] = ATP 30-1000 μM, concentration-dependent
[11] = ATP 10 μM-1 mM, 24 hours, ELISA, in proportion to concentration
[12] = ATP 10 μM-1 mM, 24 hours, ELISA, in proportion to ATP concentration
[13] = Reactive blue 2 100 μM, cells treated 6 hours
[14] = UVB irradiation 10 minutes after pretreatment with 100 μM Reactive blue 2, supernatant after 24 h, ELISA
[15] = keratinocytes pretreated with 100 μM Reactive blue 2, ATP added 10 minutes later, supernatant after 24 hours, ELISA
[16] = keratinocytes pretreated with 30-100 μM Reactive blue 2, ATP added 10 minutes later, supernatant after 24 hours, ELISA
[17] = pretreatment of the cells with suramin, data not shown

In the case of `Nc1ncnc2c1ncn2[C@@H]1O[C@H](COP(=O)(O)OP(=O)(O)OP(=O)(O)O)[C@@H](O)[C@H]1O` [ATP, adenosine triphosphate], the “IL-6 expression over non-stimulated cells (controls)” value [1, 10] is reported as “significantly increased”, the “TNFα in culture supernatant after addition of ATP” value [2, 11] is reported as “significant increase” and the “IL-1α in culture supernatant after addition of ATP” value [3, 11] is reported as “significant increase”. The “IL-8 in culture supernatant after addition of ATP” value [4, 12] was “significant increase”, the “IL-6 in culture supernatant after addition of ATP” value [5, 12] was “significant increase” and the “IL-8 expression over non-stimulated cells (controls)” value [6, 10] was “significantly increased”.

For `Nc1c(S(=O)(=O)O)cc(Nc2ccc(Nc3nc(Cl)nc(Nc4cccc(S(=O)(=O)O)c4)n3)c(S(=O)(=O)O)c2)c2c1C(=O)c1ccccc1C2=O` [Reactive blue 2], the “epidermal hyperplasia after barrier disruption (HE staining)” value [7] was “inhibits the epidermal hyperplasia”, the “ATP-induced increase in IL-6 gene expression” value [1, 13] was “significantly inhibited” and the “ultraviolet irradiation-induced increase in IL-8” value [8, 14] was “significantly inhibited”. For the same molecule, the “ATP-induced increase in TNFα” value [2, 15] was “significantly inhibited”, the “ATP-induced increase in IL-1α” value [3, 15] was “significantly inhibited” and the “ATP-induced increase in IL-8” value [4, 16] was “significantly inhibited”. For the same molecule, the “ATP-induced increase in IL-6” value [5, 16] was “significantly inhibited”, the “ultraviolet irradiation-induced increase in IL-6” value [9, 14] was “significantly inhibited” and the “ATP-induced increase in IL-8 gene expression” value [6, 13] was “significantly inhibited”.

For `Cc1ccc(C(=O)Nc2ccc(S(=O)(=O)O)c3cc(S(=O)(=O)O)cc(S(=O)(=O)O)c23)cc1NC(=O)c1cccc(NC(=O)Nc2cccc(C(=O)Nc3cc(C(=O)Nc4ccc(S(=O)(=O)O)c5cc(S(=O)(=O)O)cc(S(=O)(=O)O)c45)ccc3C)c2)c1` [suramin], the “increase in IL-8 release produced by ultraviolet irradiation” value [8, 17] was “similarly inhibited”, the “increase in TNFα release produced by ATP addition” value [2, 17] was “similarly inhibited” and the “increase in IL-1α release produced by ATP addition” value [3, 17] was “similarly inhibited”. For the same molecule, the “increase in IL-8 release produced by ATP addition” value [4, 17] was “similarly inhibited”, the “increase in IL-6 release produced by ATP addition” value [5, 17] was “similarly inhibited” and the “increase in IL-6 release produced by ultraviolet irradiation” value [9, 17] was “similarly inhibited”.
